Columns and labels:
[1] = cited from earlier work
Description: Within few minutes after the treatment with the MTD peptide, intracellular calcium concentration increases, and extracellular calcium penetrates through the mitochondrial permeability transition (mPT) pore. With the formation of blebs, the calcium concentration decreases and mitochondrial reactive oxidative species (ROS) begin to increase. MTDs also induce mitochondrial swelling, fragmentation, and endopla ... || Bnip1 MTD-like motif (B1MLM), derived from another BH3-only protein, Bnip1, also induces cell death in the same manner. Bnip1 interacts with […] Bcl-2 family proteins and the adenoviral antiapoptotic protein, E1B 19 kDa. The BH3 domain of Bnip1 is closely involved in apoptosis and mitochondrial fission carried out by Drp1 [14]. B1MLM has a similar arrangement of leucine residues as that of MTD. […] Similar to MTD, B1MLM induces a sharp rise in ca ... || MTD and B1MLM peptides induce necrotic cell death when associated with R8. R8 is a well-known cell penetrating motif. […] To evaluate the cytotoxicity of MTD homologs, we synthesized these peptides and fused R8 at the N-terminus.

HeLa cells = test: MTS assay of cell viability after peptide treatment; format: cell-based; conditions: HeLa cells at 90% confluency, peptide in phenol red-free DMEM for 1 h, absorbance 450 nm
Procedure: HeLa cells were purchased from the Korean Cell Line Bank (Korea) and cultured in Dulbecco’s modified Eagle’s medium (DMEM) containing 10% fetal bovine serum and 1× penicillin-streptomycin (100 IU/ml and 100 μg/ml, Gibco-Thermo Fisher, USA) at 37°C in a humidified 5% CO2 atmosphere.
HeLa cells were cultured in 96-well plates to 90% confluency and treated with peptides mixed in phenol red-free DMEM for 1 h. After incubation, MTS solution (20 μl, Promega, USA) was added and the absorbance of each well was measured at 450 nm.
Fig. 1 Mitochondrial targeting domain (MTD) homologs induce necrotic cell death as in MTD. A. (Left panel) There are several mitochondrial targeting domain (MTD) homologs in human genes. They were searched by protein basic local alignment search tool (BLAST) on National Center for Biotechnology Information (NCBI) and sorted according to percent identity with MTD. Each amino acid was colored according to the ClustalX color scheme (hydrophobic, blue; positive charge, red; negative charge, magenta; polar, green; glycine, orange; proline, yellow; aromatic, cyan; cysteine, pink). (Right panel) The cytotoxicity of mitochondrial targeting domain (MTD) homologs is determined by its amino acid sequence. MTD homologs were grouped according to their cytotoxicity, then sorted according to percent identity with MTD. Each amino acid was colored according to the ClustalX color scheme (hydrophobic, blue; positive charge, red; negative charge, magenta; polar, green; glycine, orange; proline, yellow; aromatic, cyan; cysteine, pink). B. Cell viabilities were determined by MTS assay 1 h after treating HeLa cells with MTD homologs fused with octa-arginine (R8). HeLa cells treated with R8:M-LIPRIN, R8:MST3GAL3, R8:M-TRRAD, and R8:M-SDAD1(left panel). HeLa cells treated with eM-GAL3, R8:MGAL3, and R8:M-ST13 (right panel). C, HeLa cells treated with R8:M-SDAD1 (5 μM), R8:M-TRRAD (20 μM), and R8:M-ST3GAL3 (40 μM), then observed for 10 min using differential interference contrast microscopy. D, HeLa cells were treated with R8:M-SDAD1 (10 μM), R8:M-TRRAD (20 μM), and R8:M-ST3GAL3 (40 μM), with and without DIDS (200 μM); after 1 h, cell viability was determined by MTS assay. […]

[2] = previous study; cited from earlier work

For “KLLNLISKLF [MTD, mitochondrial targeting domain of Noxa, as a peptide without R8]”, the “cell killing activity of MTD peptide without R8” value ([1]; previous study) is listed as “did not show any cell killing activity”.

For “KLNFRQKLLNLISKLFCSGT [eMTD, extended MTD: MTD with its flanking region]”, the necrotic cell death ([1]; MTD with its flanking region) is given as “strongly induces necrotic cell death”.

In the case of “LLQYNHRVKKLNEISKLGISGDIDLTSASYTMI [eM-GAL3, M-GAL3 with a flanking region similar to that of eMTD, without R8]”, the “cytotoxicity / cell viability as the concentration increased (Fig. 1B)” value (HeLa cells) is reported as “hardly altered cell viability”.

With “RRRRRRRREAKLLELTSKLRKA [R8:M-LIPRIN, MTD homolog found in LIPRIN, fused with R8 at the N-terminus]” the “cytotoxicity / cell viability as the concentration increased (Fig. 1B)” value (HeLa cells) was “hardly altered cell viability”.

In the case of RRRRRRRRKLLNLISKLF [R8:MTD], the “disruption of ER and mitochondria” value [2] is listed as “induced the disruption of ER and mitochondria”.

With “RRRRRRRRNPKVMNLISKLSAK [R8:M-ST13, MTD homolog found in ST13, fused with R8 at the N-terminus]” the “cytotoxicity / cell viability as the concentration increased (Fig. 1B)” value (HeLa cells) was “hardly altered cell viability”.

For “RRRRRRRRVKKLNEISKLGISG [R8:M-GAL3, MTD homolog found in GAL3, fused with R8 at the N-terminus]”, the “cytotoxicity / cell viability as the concentration increased (Fig. 1B)” value (HeLa cells) was “hardly altered cell viability”.

Reference: article PMC9705834, “Mitochondrial Targeting Domain Homologs Induce Necrotic Cell Death Via Mitochondrial and Endoplasmic Reticulum Disruption” (Journal of Microbiology and Biotechnology, 2021)
